Legend:
HIV (CEM Cells) = experiment: Cell Culture Anti-HIV Activity (formazan cell viability of HIV-infected CEM-SS cells); type: cell-based; settings: Human immunodeficiency virus 1, CCRF-CEM, 144 h; CEM-SS cells infected with RF strain of HIV, multiplicity of infection 0.04, 6 days at 37° C.; concentration raising formazan production to 50% of uninfected cells
Description: The antiviral activity of the retrocarbamate protease inhibitors of the present invention was evaluated by a microculture method which determines the increase in cell viability of an infected culture when a drug is added. The assay depends on the metabolic reduction of tetrazolium reagent by viable cells to yield a soluble colored formazan product. The assay was performed as follows: suspensions of CEM--SS cells (5000/well) were infected with the RF strain of HIV at a multiplicity of infection at 0.04 in a 96-well plate. The compounds of the present invention listed in the following Table 1, serially diluted in half-log fashion, were added to the infected and uninfected control cells. Untreated (infected and uninfected) cells were included as controls. Following incubation for 6 days at 37° C., viable cells in each well were quantitated by the visible light absorbance at 450 nm. The IC50 was calculated as the concentration of drug that increased the formazan production in virally infected cells to 50% of that produced by uninfected cells in the absence of drug.

HIV protease = target: T1, HIV protease (Human immunodeficiency virus type 1 group M subtype B, UniProt P04585); experiment: HIV Protease Assay; type: biochemical; settings: 10 μM inhibitor, 4% DMSO, 450 μM substrate, pH 5.5, 30 minutes at 37° C.
T1 construct: purified protease
Description: An HIV protease standard assay was performed in a 60 μl reaction medium containing 50 mM sodium acetate, pH 5.5, 100 μg/ml bovine serum, 450 μM substrate (H2 N-Val-Ser-Gin-Asn-( β-naphthyl-alanine)-Pro-Val-Ile-OH), and purified protease. The reaction medium was incubated for 30 minutes at 37° C., quenched by the addition of 140 μl 5% H3 PO4, then analyzed by reverse phase HPLC using UV220 detection. In a typical control assay, 7% of the substrate was hydrolyzed. The retrocarbamate protease inhibitors of the present invention, listed in the following Table 1, were then employed in the assay, for which purpose they were prepared as a […] solution in DMSO then diluted to 30 μM with 50 mM sodium acetate/bovine serum albumen. This working stock was then diluted three-fold into the protease reaction medium, for a final concentration of 10 μM inhibitor and 4% DMSO.

Row | Structure (SMILES) | IC50 (HIV (CEM Cells)) | inhibition at 10 µM (HIV protease)
1 | CC(C)(C)NC(=O)O[C@@H](Cc1ccccc1)[C@H](O)CNC[C@@H](O)[C@H](Cc1ccccc1)NC(=O)OC(C)(C)C [Example 1, [1S-[1R*,2S*(2S*,3R*)]]-[3-[[3-[[[(1,1-Dimethylethyl)amino]carbonyl]oxy]-2-hydroxy-4-phenylbutyl]amino]-2-hydroxy-1-(phenylmethyl)-propyl]carbamic acid, 1,1-dimethyl ester] | 0.46 µM | 98%
2 | CC(C)(C)NC(=O)O[C@@H](Cc1ccccc1)[C@H](O)CNC[C@@H](O)[C@H](Cc1ccc(OCC(=O)N2CCOCC2)cc1)NC(=O)OC(C)(C)C [Example 2, [1S-[1R*,2S* (2S*,3R*)]]-[3-[[3-[[[(1,1-Dimethylethyl)amino]carbonyl]oxy]-2-hydroxy-4-phenylbutyl]amino]-2-hydroxy-1-[[4-[2-(morpholinyl)-2-oxoethoxy]phenyl]methyl]propyl]carbamic acid, 1,1-dimethylethyl ester] | 0.2 µM | 90%
3 | CC(C)(C)NC(=O)O[C@@H](Cc1ccccc1)[C@H](O)CNC[C@@H](O)[C@H](Cc1ccccc1)NC(=O)[C@](C)(O)C(C)(C)C [Example 3, [1S-[1R*, 2S*[2S*, 3R* (S*)]]]-(1,1-Dimethylethyl)carbamic acid, 3-[[3-[(2-hydroxy-2,3,3-trimethyl-1-oxobutyl)amino]-2-hydroxy-4-phenylbutyl]amino]-2-hydroxy-1-(phenylmethyl)propyl ester] | 0.1 µM | 98%

— patent US5492910A, “Retrocarbamate protease inhibitors” (Bristol-Myers Squibb Co., priority 1994, dated 1996)
